Results from patent US20110104167A1, “Compositions and Methods for Diagnosing and Treating Insulin Resistance” (YEDA RESEARCH AND DEVELOPMENT CO. LTD., priority 2004, published 2011).
Where a SMILES comes first, the peptide text is derived from it. The star is where a group is joined. Cbz = O=C(OCc1ccccc1)*

Experiments:
S408 of IRS-1 = experiment: In vivo phosphorylation of S408 of IRS-1 in cultured Fao cells; format: cell-based, rat
Experimental: Following 48 hours, the cells were starved for 16 hours. The medium was removed and the cells were incubated with or without 100 nM insulin for the indicated times (FIG. 10a). Alternatively, the cells were incubated with insulin, SMase or calyculin A as indicated (FIG. 10b). Cytosolic extracts (100 μg) were resolved on 7.5% SDS-PAGE and immunoblotted with anti-phospho-Ser 408 antibody or anti-PY antibodies as indicated.
Infection of Fao cells with adenovirus—Fao cells were grown in RPMI medium containing 10% FCS. At 70% confluence cells were infected with adenoviruses harboring the gene of interest at a titer of 7 10^7 PFU/ml. After incubation for 2 h hours at 37° C., the virus-containing medium was diluted 1:5 in fresh RPMI medium. After 24 h the medium was replaced with a fresh RPMI medium containing 10% FCS. 48 h post-infection the Fao cells were starved in serum-free RPMI for 16 h and were then subjected to the indicated treatments as described below.
Treatment of cells and preparation of extracts—Virally-infected Fao cells were grown as described above. Nave Rat hepatoma (Fao) cells or CHO cells were grown in RPMI medium supplemented with 10% fetal calf serum as described (22). At 70-80% confluence, cells were deprived of serum for 16 h prior to each experiment, and were then incubated with inducers of insulin resistance and/or insulin. […]

CHO-T cells [1] = experiment: Phosphorylation (mobility shift) of truncated IRS-1 PH/PTB constructs in CHO-T cells; format: cell-based, Chinese Hamster; details: 25 nM calyculin A 60 min
Experimental: (§1) FIGS. 7a-c show In vivo phosphorylation of PH/PTB-L in response to insulin. CHO-T cells were transiently transfected with pcDNA3-Myc-PH/PTB (1-1290 nt) or with an insert-free plasmid (control). Twenty-four hours post-transfection, the cells were deprived of serum for 16 h and were then treated with insulin for the indicated time periods. Cell extracts (100 μg) were resolved on 10% SDS-PAGE and immunoblotted with anti-pY or anti-Myc antibodies (FIG. 7a). In parallel, samples (100 μg, 40 μl) were incubated with 3 units (U) of calf intestine phosphatase (CIP) at 37° C. for 1 h. The samples were resolved on 10% SDS-PAGE and immunoblotted with anti-Myc antibodies (FIG. 7b). The results are of a representative of two experiments. FIG. 7c—CHO^PH/PTB-L cells were starved in serum-free F12 medium for 16 h. The cells were treated for 30 min with the indicated inhibitors prior to being treated with 100 nM insulin for 30 min. Cell extracts were prepared, samples were resolved on 10% SDS-PAGE and were immunoblotted with anti-Myc antibodies. Results are of a representative of three experiments.
FIGS. 8a-b show the effects of insulin on Serine phosphorylation of Myc-PH/PTB-L^7A CHO-T cells were transiently transfected with constructs encoding Myc-PH/PTB-L (1-1290 nt), either wild type (WT) or the 7A mutant (FIG. 8a). Alternatively, the cells were transfected or with the constructs encoding Myc-PH/PTB-L (1-1290 nt; 1-430 aa) or Myc-PH/PTB-S (1-1095 nt; 1-365 aa, FIG. 8b). Following 24 hours in culture, the cells were incubated in serum-free F12 medium for 16 ch prior to being treated with insulin for the indicated times. Cell extracts were resolved on 10% SDS-PAGE and immunoblotted with anti-Myc antibodies. Results are of a representative of three experiments.
FIGS. 9a-b show the effects of insulin and calyculin A on Ser phosphorylation of PH/PTB-L mutants. FIG. 9a—CHO-T cells were transiently transfected with constructs expressing either Myc-PH/PTB^WT or the following PH/PTB mutants: S336A, S407A, S408A, S407/8A and S3A (S336/407/408A). Following 24 hours the cells were deprived of serum for 16 h, and were treated with insulin for the indicated times. Cell extracts were resolved on 10% SDS-PAGE and immunoblotted with anti-Myc antibodies. The results are of a representative of two-three experiments. FIG. 9b—CHO-T cells were transiently transfected with pcDNA3-myc-PH/PTB^WT or pcDNA3-myc-PH/PTB^S408A. Following 24 hours the cells were starved for 16 h and were then treated either with 100 nM insulin for 30 min or with 25 nM calyculin A for 60 min. Cell extracts were resolved on 10% SDS-PAGE and were immunoblotted with anti-Myc antibodies. Results are of a representative of two experiments.
Plasmids construction—i. Myc-tagged-IRS-1 The cDNA, encoding for the mouse IRS-1 in the pCNA-3 expression plasmid (35) was digested with Hind III and BspE-1. This deleted a 9 by fragment from the 5′-IRS-1 cDNA that was replaced by a double stranded synthetic oligonucleotide encoding the Myc tag and the missing amino-acids of IRS-1 (bold) […] (SEQ ID NO. 9). ii. Myc-tagged truncated IRS-1 (aa 1-430, PH/PTB-L) Myc-tagged mouse IRS-1 cDNA (N-terminus, 1-1290 nt), encoding for the first 430 aa of IRS-1, was PCR-amplified with the following primers. 5′-CAGGATCCGCATATGGAACAAAAGCTC-3′ (sense) (SEQ ID NO. 10); 5′-GAGAATTCATCAGGGACTAGAACCATA-3′ (anti-sense) (SEQ ID NO. 11), using as a template the pcDNA3-Myc-IRS-1 plasmid. The PCR product was ligated into a pGEM-T. The insert was excised from pGEM-T with BamH I and EcoR I (italic), and then was ligated into pcDNA3 at the same restriction sites to generate pcDNA3-Myc-IRS-1^PH/PTB-L. iii. Myc-tagged truncated IRS-1 (aa 1-365, PH/PTB-S) Myc-tagged mouse IRS-1 cDNA (N-terminus, 1-1095 nt), encoding for the first 365 aa of IRS-1, was PCR-amplified with the following primers: 5′ […]-3′ (sense) (SEQ ID NO. 12); 5′ […] 3′ (anti sense) (SEQ ID NO. 13) using as a template the pcDNA3-Myc-IRS-1. […]

CHO-T cells [2] = experiment: Insulin-induced Tyr phosphorylation of IRS-1 in stably transfected CHO-T cells; format: cell-based, Chinese Hamster
Experimental: FIGS. 1a-c show Tyrosine (Tyr) phosphorylation of IRS-1^7A and its interactions with IR. FIG. 1a—monolayers of CHO-T cells stably overexpressing either WT-IRS-1 (CHO-T^WT) or IRS-1^7A (CHO-T^7A) at 80% confluence (grown in 6 cm plates) were deprived of serum for 16 h prior to the experiment. The cells were then incubated with insulin for the indicated times at 37° C. Cells extracts (100 μg) were resolved on 7.5 SDS-PAGE and immunoblotted with the indicated antibodies. The results are of a representative of six experiments. FIG. 1b—IRS-1 was isolated from CHO-T^WT or CHO-T^7A cells. In vitro phosphorylation of IRS-1^WT and IRS-1^7A by Insulin receptor (IR) was effected as described under “Materials and Experimental Procedures” section of the Examples section which follows. The reaction mixture was subjected to immunoprecipitation with anti-IRS-1 antibodies. Immunocomplexes were resolved on 7.5 SDS-PAGE and immunoblotted with anti-phosphotyrosine (pY) or anti IRS-1 antibodies. FIG. 1c—CHO-T^WT (expressing wild type IRS-1) and CHO-T^7A (expressing the 7A IRS-1 mutant) cells were deprived of serum for 16 h prior to the experiment. The cells were stimulated with 100 nM insulin for the indicated times at 37° C. Cell extracts were prepared and samples (1 mg) were bound to immobilized IR. […]

insulin receptor = details: Fao cells, 10^−7M insulin, prolonged; cited from earlier work
[3] = biological target: insulin receptor (IR) of Fao rat hepatoma cells (rat (Fao rat hepatoma cells)) (UniProt P15127); experiment: cell-based or functional assay
IRS-1 = experiment: Effect of proteosome inhibitor on IRS-1 protein content and Tyr phosphorylation; format: cell-based; details: not shown
Myc-PH/PTB-L = biological target: T1, Myc-PH/PTB-L (Mus musculus, UniProt P35569); experiment: In vitro dephosphorylation of Myc-PH/PTB-L with calf intestine alkaline phosphatase; format: biochemical; details: 3 units CIP, 37° C., 1 h
T1 construct: Myc-tagged truncated IRS-1 (aa 1-430, PH/PTB-L); expressed in transfected cells; host or cells: CHO-T cells, transient transfection with pcDNA3-Myc-PH/PTB (1-1290 nt)
T1 sequence (P35569 1-430): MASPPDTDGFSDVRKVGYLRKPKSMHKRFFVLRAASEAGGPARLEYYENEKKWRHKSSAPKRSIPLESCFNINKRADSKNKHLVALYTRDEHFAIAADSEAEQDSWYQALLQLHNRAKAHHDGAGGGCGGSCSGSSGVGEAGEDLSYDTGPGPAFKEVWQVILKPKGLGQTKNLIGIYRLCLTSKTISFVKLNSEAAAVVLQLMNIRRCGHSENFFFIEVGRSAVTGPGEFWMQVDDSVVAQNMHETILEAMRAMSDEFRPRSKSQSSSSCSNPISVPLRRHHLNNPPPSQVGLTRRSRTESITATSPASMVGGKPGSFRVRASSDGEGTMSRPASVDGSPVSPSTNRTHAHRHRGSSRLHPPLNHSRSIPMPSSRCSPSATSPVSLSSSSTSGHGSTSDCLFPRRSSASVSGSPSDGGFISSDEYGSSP
Experimental: as §1

Chain of insulin receptor (IR) of Fao rat hepatoma cells (rat (Fao rat hepatoma cells)) (P15127 27-1383 limits assumed): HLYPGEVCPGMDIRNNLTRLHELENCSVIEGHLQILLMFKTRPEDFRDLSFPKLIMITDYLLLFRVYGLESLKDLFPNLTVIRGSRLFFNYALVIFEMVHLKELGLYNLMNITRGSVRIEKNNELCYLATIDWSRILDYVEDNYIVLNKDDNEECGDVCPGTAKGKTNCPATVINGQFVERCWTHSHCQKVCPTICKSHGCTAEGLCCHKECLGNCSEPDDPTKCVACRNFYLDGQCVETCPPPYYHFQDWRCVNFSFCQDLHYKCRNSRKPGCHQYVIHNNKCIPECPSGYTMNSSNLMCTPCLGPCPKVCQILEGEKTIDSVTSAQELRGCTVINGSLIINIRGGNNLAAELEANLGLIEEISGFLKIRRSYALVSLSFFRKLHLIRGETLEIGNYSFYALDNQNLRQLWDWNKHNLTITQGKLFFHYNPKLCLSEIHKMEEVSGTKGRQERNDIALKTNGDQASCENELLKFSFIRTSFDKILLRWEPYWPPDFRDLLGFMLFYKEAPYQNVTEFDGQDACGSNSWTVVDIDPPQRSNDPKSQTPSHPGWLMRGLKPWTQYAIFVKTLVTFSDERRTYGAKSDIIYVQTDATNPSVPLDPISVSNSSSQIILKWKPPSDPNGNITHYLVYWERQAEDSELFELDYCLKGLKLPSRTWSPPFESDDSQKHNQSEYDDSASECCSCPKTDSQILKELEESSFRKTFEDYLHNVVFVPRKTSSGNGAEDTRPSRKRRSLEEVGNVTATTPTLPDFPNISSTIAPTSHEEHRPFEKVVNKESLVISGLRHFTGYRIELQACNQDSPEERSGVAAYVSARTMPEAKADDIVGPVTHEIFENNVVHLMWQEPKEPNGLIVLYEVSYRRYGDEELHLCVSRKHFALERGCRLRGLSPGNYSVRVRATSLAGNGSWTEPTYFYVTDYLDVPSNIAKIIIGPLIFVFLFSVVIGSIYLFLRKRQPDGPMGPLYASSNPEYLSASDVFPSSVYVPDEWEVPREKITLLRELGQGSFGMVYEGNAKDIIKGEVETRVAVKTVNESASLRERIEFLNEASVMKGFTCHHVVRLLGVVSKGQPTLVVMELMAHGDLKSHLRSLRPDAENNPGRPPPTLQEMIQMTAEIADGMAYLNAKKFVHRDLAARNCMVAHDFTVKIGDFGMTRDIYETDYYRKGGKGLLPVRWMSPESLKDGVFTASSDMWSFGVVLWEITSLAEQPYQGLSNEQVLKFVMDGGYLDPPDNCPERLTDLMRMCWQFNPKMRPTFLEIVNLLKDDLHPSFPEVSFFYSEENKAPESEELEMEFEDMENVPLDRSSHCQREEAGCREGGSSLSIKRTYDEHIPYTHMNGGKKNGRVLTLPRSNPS

COC[C@@H]([C@H](O)[C@H](O)C(=O)NCC[C@H](C)c1nc(/C=C/C[C@@H]2O[C@]3(C[C@@H](O)[C@@H]2C)O[C@H]([C@H](C[C@H](O)[C@H](C)[C@H](O)[C@H](C)/C=C(C)/C(C)=C/C=C/C(C)=C\C#N)OC)[C@H](OP(=O)(O)O)C3(C)C)co1)N(C)C [Calyculin A]
in vivo phosphorylation of S408 (S408 of IRS-1; Fao cells infected with IRS-1^WT): induced phosphorylation of S408 | Ser phosphorylation (mobility shift) of Myc-PH/PTB-L^WT (CHO-T cells [1]): triggers Ser phosphorylation | mobility shift when Ser408 was mutated to Ala (CHO-T cells [1]): significantly reduced

insulin: human insulin used as stimulus
incubation time required for maximal phosphorylation of Ser408 (S408 of IRS-1; 100 nM insulin): 30 to 60 min | insulin treatment time at which maximal Tyr phosphorylation of IRS-1 was detected (CHO-T cells [2]): 2 min | reduction in ability of IRS-1 to interact with the insulin receptor (insulin receptor): > 40%

Myc-IRS-1^WT (Myc-tagged wild-type mouse IRS-1 expressed in Fao cells from an adenoviral construct) (from UniProt P35569 4-1233)
reduction of Tyr phosphorylation content following prolonged (60 min) insulin treatment [3]: 55%

CC(C)C[C@@H](C=O)NC(=O)[C@H](CC(C)C)NC(=O)[C@H](CC(C)C)NC(=O)OCc1ccccc1 [MG-132] (Cbz-Leu-Leu-Leu-aldehyde)
effect on protein content and Tyr phosphorylation patterns of IRS-1^7A and IRS-1^WT (IRS-1): did not alter significantly

B1: CIP: calf intestine alkaline phosphatase (protein, UniProt P19111 20-506, looked up)
Intestinal-type alkaline …: LVPVEEEDPAFWNRQAAQALDVAKKLQPIQTAAKNVILFLGDGMGVPTVTATRILKGQMNGKLGPETPLAMDQFPYVALSKTYNVDRQVPDSAGTATAYLCGVKGNYRTIGVSAAARYNQCKTTRGNEVTSVMNRAKKAGKSVGVVTTTRVQHASPAGAYAHTVNRNWYSDADLPADAQMNGCQDIAAQLVNNMDIDVILGGGRKYMFPVGTPDPEYPDDASVNGVRKRKQNLVQAWQAKHQGAQYVWNRTALLQAADDSSVTHLMGLFEPADMKYNVQQDHTKDPTLQEMTEVALRVVSRNPRGFYLFVEGGRIDHGHHDDKAYMALTEAGMFDNAIAKANELTSELDTLILVTADHSHVFSFGGYTLRGTSIFGLAPSKALDSKSYTSILYGNGPGYALGGGSRPDVNDSTSEDPSYQQQAAVPQASETHGGEDVAVFARGPQAHLVHGVEEETFVAHIMAFAGCVEPYTDCNLPAPTTATSIPD
effect on mobility shift of PH/PTB-L from insulin-treated cells (Myc-PH/PTB-L): abolished the mobility shift
